Assay [1] concerns MDR P. aeruginosa clinical isolates. Kind of assay: Resistance phenotype (MICs of antibiotics) of MDR clinical isolates. The format is cell-based, Pseudomonas aeruginosa. Conditions: Pseudomonas aeruginosa.
Assay [2] concerns MDR A. baumannii clinical isolates. The description is as above. Conditions: Acinetobacter baumannii. The format is cell-based, Acinetobacter baumannii.
Assay [3] has as its system MDR E. coli clinical isolates. Described as above. It is filed as cell-based, Escherichia coli. Conditions: Escherichia coli, read-out: MIC.
The test system of assay [4] is MDR K. pneumoniae clinical isolates. The description is as above. It is filed as cell-based, Klebsiella pneumoniae. To be noted: Klebsiella pneumoniae, read-out: MIC.
Assay [5] has as its system MDR E. cloacae clinical isolates. The description is as above. The format is cell-based, Enterobacter cloacae. Conditions: Enterobacter cloacae, read-out: MIC.
Assay [6] relates to wild-type E. coli ATCC 25922. In words: microbe, parasite or virus in culture. It is filed as cell-based, Escherichia coli. To be noted: ATCC 25922. The protocol: The adjuvant activities of dUSTBβPs were evaluated using checkerboard assay as previously described ([Berry et al., 2019]). Overnight-grown bacterial culture diluted in saline to 0.5 McFarland turbidity was successively diluted 1:50 in MHB to achieve a final concentration of 5 × 10^5 CFU/mL for inoculation. The antibiotic and adjuvant were serially diluted 2-fold along the x-axis and y-axis, respectively, resulting in varying concentrations of both agents in each well. Subsequently, the 96-well plate was incubated with equal volumes of bacterial inoculum at 37°C for 18 h. Confirmation of turbidity was done using an EMax Plus microplate reader (Molecular Devices, United States) at a wavelength of 590 nm. Wells comprising MHB alone or in the presence of bacterial cells were used as negative or positive controls, respectively. Fractional inhibitory concentration index (FICI) is determined by adding the FICs of both antibiotic and adjuvant. The FIC of the antibiotic is calculated by dividing the MIC of the antibiotic in the presence of the adjuvant by the MIC of the antibiotic alone. Similarly, the FIC of the adjuvant is calculated by dividing the MIC of the adjuvant in the presence of the antibiotic by the MIC of the adjuvant alone. FICI ≤ 0.5, 0.5 < x ≤ 4, and >4 were deemed synergistic, additive, and antagonistic, respectively ([Meletiadis et al., 2010]).

The structures appear in SMILES notation. Converted amounts (≈) assume the structure as drawn. Like-named read-outs stand apart in the source and are kept apart here.

For `C[C@@H](O)[C@H]1C(=O)N2C(C(=O)O)=C(SCCN=CN)C[C@H]12` [IMI, imipenem], the MIC in assay [1] (259-96196, read-out: MIC) worked out at 32 µg/mL (≈ 107 µM); in assay [1] (262-101856, read-out: MIC) it was 32 µg/mL (≈ 107 µM); in assay [1] (264-104354, read-out: MIC), 32 µg/mL (≈ 107 µM); in assay [1] (91433, read-out: MIC), 32 µg/mL (≈ 107 µM); in assay [2] (AB027, read-out: MIC), 32 µg/mL (≈ 107 µM); in assay [2] (AB031, read-out: MIC), 0.25 µg/mL (≈ 0.835 µM). Also, the MIC was < 1 µg/mL in assay [2] (LAC-4, read-out: MIC); 0.25 µg/mL (≈ 0.835 µM) in assay [3] (94393 (mcr-1 +)); 0.25 µg/mL (≈ 0.835 µM) in assay [3] (94474 (mcr-1 +)); 8 µg/mL (≈ 26.7 µM) in assay [3] (107115); 0.25 µg/mL (≈ 0.835 µM) in assay [4] (113250); 0.12 µg/mL (≈ 0.401 µM) in assay [4] (113254). Also, the results for the MIC in assay [4] (116381) and in assay [5] (117029) were 0.5 µg/mL (≈ 1.67 µM) and 0.25 µg/mL (≈ 0.835 µM), respectively.

`CO/N=C(\C(=O)N[C@@H]1C(=O)N2C(C(=O)O)=C(CSc3nc(=O)c(=O)[nH]n3C)CS[C@H]12)c1csc(N)n1` [CTR, ceftriaxone]: the MIC in assay [1] (259-96196, read-out: MIC) was > 64 µg/mL; in assay [1] (262-101856, read-out: MIC), 64 µg/mL (≈ 115 µM); in assay [1] (264-104354, read-out: MIC), > 64 µg/mL; in assay [1] (91433, read-out: MIC), > 64 µg/mL.

Turning to `CN(C)c1cc(NC(=O)CNC(C)(C)C)c(O)c2c1C[C@H]1C[C@H]3[C@H](N(C)C)C(O)=C(C(N)=O)C(=O)[C@@]3(O)C(O)=C1C2=O` [TGC, tigecycline], the MIC in assay [1] (259-96196, read-out: MIC) amounted to 32 µg/mL (≈ 54.6 µM); in assay [1] (262-101856, read-out: MIC), 32 µg/mL (≈ 54.6 µM); in assay [1] (264-104354, read-out: MIC), 32 µg/mL (≈ 54.6 µM); in assay [1] (91433, read-out: MIC) it was 32 µg/mL (≈ 54.6 µM); in assay [2] (92247, read-out: MIC), 0.25 µg/mL (≈ 0.427 µM); in assay [2] (AB027, read-out: MIC), 4 µg/mL (≈ 6.83 µM). Besides, the MIC in assay [2] (AB031, read-out: MIC) is 8 µg/mL (≈ 13.7 µM); in assay [2] (LAC-4, read-out: MIC) it was < 4 µg/mL; in assay [3] (94393 (mcr-1 +)) it was 0.25 µg/mL (≈ 0.427 µM); in assay [3] (94474 (mcr-1 +)) it was 1 µg/mL (≈ 1.71 µM); in assay [3] (107115) it was 0.25 µg/mL (≈ 0.427 µM); in assay [4] (116381), 1 µg/mL (≈ 1.71 µM). For the same molecule, the MIC in assay [5] (117029) was 0.5 µg/mL (≈ 0.854 µM).

With `NCC[C@H](O)C(=O)N[C@@H]1C[C@H](N)[C@@H](O[C@H]2O[C@H](CN)[C@@H](O)[C@H](O)[C@H]2O)[C@H](O)[C@H]1O[C@H]1O[C@H](CO)[C@@H](O)[C@H](N)[C@H]1O` [AMK, amikacin], the MIC in assay [1] (259-96196, read-out: MIC) is > 64 µg/mL; in assay [1] (262-101856, read-out: MIC) it was > 64 µg/mL; in assay [1] (264-104354, read-out: MIC), 8 µg/mL (≈ 13.7 µM); in assay [1] (91433, read-out: MIC), > 32 µg/mL; in assay [2] (92247, read-out: MIC) it was < 1 µg/mL; in assay [2] (AB027, read-out: MIC), > 64 µg/mL. Also, the MIC in assay [2] (AB031, read-out: MIC) is 2 µg/mL (≈ 3.42 µM); in assay [2] (LAC-4, read-out: MIC), 4 µg/mL (≈ 6.83 µM); in assay [3] (94393 (mcr-1 +)), 2 µg/mL (≈ 3.42 µM); in assay [3] (94474 (mcr-1 +)) it was 2 µg/mL (≈ 3.42 µM); in assay [3] (107115) it was 2 µg/mL (≈ 3.42 µM); in assay [4] (113250), ≤ 1 µg/mL. Besides, the MIC in assay [4] (113254) was ≤ 1 µg/mL; in assay [4] (116381), ≤ 1 µg/mL; in assay [5] (117029) it was 2 µg/mL (≈ 3.42 µM); in assay [5] (118564), 2 µg/mL (≈ 3.42 µM); in assay [5] (121187), 1 µg/mL (≈ 1.71 µM).

For the molecule `C[C@@H](O)[C@H]1C(=O)N2C(C(=O)O)=C(S[C@@H]3CN[C@H](C(=O)Nc4cccc(C(=O)O)c4)C3)[C@H](C)[C@H]12` [ETP, ertapenem], the MIC in assay [1] (259-96196, read-out: MIC) was > 32 µg/mL; in assay [1] (262-101856, read-out: MIC) it was > 32 µg/mL; in assay [1] (264-104354, read-out: MIC), > 32 µg/mL; in assay [1] (91433, read-out: MIC), > 32 µg/mL; in assay [3] (94393 (mcr-1 +)), ≤ 0.03 µg/mL; in assay [3] (94474 (mcr-1 +)), ≤ 0.03 µg/mL. Moreover, the MIC in assay [3] (107115) is > 32 µg/mL; in assay [4] (113250), ≤ 0.03 µg/mL; in assay [4] (113254), ≤ 0.03 µg/mL; in assay [4] (116381), 0.12 µg/mL (≈ 0.252 µM); in assay [5] (117029) it was ≤ 0.03 µg/mL.

For `CO/N=C(\C(=O)N[C@@H]1C(=O)N2C(C(=O)O)=C(COC(C)=O)CS[C@H]12)c1csc(N)n1` [CTX, cefotaxime], the MIC in assay [1] (259-96196, read-out: MIC) is 2050 µg/mL (≈ 4500 µM); in assay [1] (262-101856, read-out: MIC) it was 128 µg/mL (≈ 281 µM); in assay [1] (264-104354, read-out: MIC) it was 2050 µg/mL (≈ 4500 µM); in assay [1] (91433), 1020 µg/mL (≈ 2250 µM); in assay [1] (114228, read-out: MIC), 128 µg/mL (≈ 281 µM); in assay [2], > 256 µg/mL. Besides, the MIC in assay [2] (AB031, read-out: MIC) turned out to be 16 µg/mL (≈ 35.1 µM).

Consider `C[C@@H](O)[C@H]1C(=O)N2C(C(=O)O)=C(S[C@@H]3CN[C@H](CNS(N)(=O)=O)C3)[C@H](C)[C@H]12` [DOR, doripenem], for which the MIC was > 1020 µg/mL in assay [1] (259-96196, read-out: MIC); 16 µg/mL (≈ 38 µM) in assay [1] (262-101856, read-out: MIC); 16 µg/mL (≈ 38 µM) in assay [1] (264-104354, read-out: MIC); 16 µg/mL (≈ 38 µM) in assay [1] (91433, read-out: MIC); 8 µg/mL (≈ 19 µM) in assay [1] (114228, read-out: MIC).

Consider `O=C(O)c1cn(C2CC2)c2cc(N3CCNCC3)c(F)cc2c1=O` [Ciprofloxacin], for which the MICcombo in assay [6] (antibiotic with dUSTBβP 3 at 8 μg/mL) worked out at 0.002 µg/mL. In assay [6] (Escherichia coli, ATCC25922, 18 h, antibiotic alone (Supplementary Table 7), read-out: MICantibiotic), the MIC was determined as 0.008 µg/mL.

Values taken from publication PMC8733726, “Dioctanoyl Ultrashort Tetrabasic β-Peptides Sensitize Multidrug-Resistant Gram-Negative Bacteria to Novobiocin and Rifampicin” (Frontiers in Microbiology, 2021).
